Measured values reported in patent US7645781B2, “N-aryl-2-oxazolidinone-5-carboxamides and their derivatives” (Pfizer Inc, priority 2002, dated 2010).
Values after ≈ are worked out from the molar mass of the structure shown.

system: Staphylococcus aureus (SAUR 9213); test: MIC by standard agar dilution method; format: cell-based; conditions: Mueller Hinton agar, incubated overnight at 35° C.
Text: The antibacterial agents of this invention have useful activity against a variety of organisms. The in vitro activity of compounds of this invention can be assessed by standard testing procedures such as the determination of minimum inhibitory concentration (MIC) by agar dilution as described in “Approved Standard. Methods for Dilution Antimicrobial Susceptibility Tests for Bacteria That Grow Aerobically”, 3rd. ed., published 1993 by the National Committee for Clinical Laboratory Standards, Villanova, Pa., USA. The in vitro MICs of test compounds are determined by a standard agar dilution method. A stock drug solution of each analog is prepared in the preferred solvent, usually DMSO:H2O (1:3). Serial 2-fold dilutions of each sample are made using 1.0 ml aliquots of sterile distilled water. To each 1.0 ml aliquot of drug is added 9 ml of molten Mueller Hinton agar medium. The drug-supplemented agar is mixed, poured into 15×100 mm petri dishes, and allowed to solidify and dry prior to inoculation. Vials of each of the test organisms are maintained frozen in the vapor phase of a liquid nitrogen freezer. Test cultures are grown overnight at 35° C. on the medium appropriate for the organism. Colonies are harvested with a sterile swab, and cell suspensions are prepared in Trypticase Soy broth (TSB) to equal the turbidity of a 0.5 McFarland standard. A 1:20 dilution of each suspension is made in TSB. The plates containing the drug supplemented agar are inoculated with a 0.001 ml drop of the cell suspension using a Steers replicator, yielding approximately 10^4 to 10^5 cells per spot. The plates are incubated overnight at 35° C. Following incubation the Minimum Inhibitory Concentration (MIC μg/ml), the lowest concentration of drug that inhibits visible growth of the organism, is read and recorded.

MIC [µg/mL] | Structure (SMILES)
4 (≈ 11.3 µM) | N=S1(=O)CCC(c2ccc(N3C[C@H](C(N)=O)OC3=O)cc2F)CC1 (stereo in doubt) [Example 56, (5R)-3-[4-(cis-1-Imino-1-oxido-1,1,3,4,5,6-hexahydro-2H-thiopyran-4-yl)-3-fluorophenyl]-2-oxo-5-oxazolidinecarboxamide]

same assay, conditions: Mueller Hinton agar, incubated overnight at 35° C., read-out: MIC

MIC [µg/mL] | Structure (SMILES)
1 (≈ 2.99 µM) | NC(=O)[C@H]1CN(c2ccc(N3C=CC(=NO)CC3)c(F)c2)C(=O)O1 (racemic) [Example 79, (5R)-3-[4-[3,4-Dihydro-4-(hydroxyimino)-1(2H)-pyridinyl]-3-fluorophenyl]-2-oxo-5-oxazolidinecarboxamide]
4 (≈ 11.2 µM) | NC(=O)[C@H]1CN(c2cc(F)c([C@H]3CC[S@+]([O-])CC3)c(F)c2)C(=O)O1 [Example 47, (5R)-(−)-3-[3,5-Difluoro-4-(trans-tetrahydro-1-oxido-2H-thiopyran-4-yl)phenyl]-2-oxo-5-oxazolidinecarboxamide]
2 (≈ 5.37 µM) | CNC(=O)[C@H]1CN(c2cc(F)c([C@H]3CC[S@+]([O-])CC3)c(F)c2)C(=O)O1 [Example 48, (5R)-N-Methyl-3-[3,5-difluoro-4-(trans-tetrahydro-1-oxido-2H-thiopyran-4-yl)phenyl]-2-oxo-5-oxazolidinecarboxamide]
8 (≈ 21.7 µM) | COC(=O)N1CC(C)(c2c(F)cc(N3C[C@H](C(N)=O)OC3=O)cc2F)C1 [Example 57, (5R)-(−)-3-[3,5-Difluoro-4-(1-methoxycarbonyl-3-methylazetidin-3-yl)phenyl]-2-oxo-5-oxazolidinecarboxamide]
8 (≈ 20.9 µM) | CNC(=O)[C@H]1CN(c2cc(F)c(C3(C)CN(C(=O)OC)C3)c(F)c2)C(=O)O1 [Example 58, (5R)-(−)-N-Methyl-3-[3,5-difluoro-4-(1-methoxycarbonyl-3-methylazetidin-3-yl)phenyl]-2-oxo-5-oxazolidinecarboxamide]
2 (≈ 6.87 µM) | CN1C(=O)COc2cc(N3C[C@H](C(N)=O)OC3=O)ccc21 [Example 59, (5R)-3-(3,4-Dihydro-4-methyl-3-oxo-2H-1,4-benzoxazin-7-yl) -2-oxo-5-oxazolidinecarboxamide]
2 (≈ 6.55 µM) | CNC(=O)[C@H]1CN(c2ccc3c(c2)OCC(=O)N3C)C(=O)O1 [Example 60, (5R)-N-Methyl-3-(3,4-dihydro-4-methyl-3-oxo-2H-1,4-benzoxazin-7-yl)-2-oxo-5-oxazolidinecarboxamide]
8 (≈ 23.7 µM) | CN1C(=O)COc2cc(N3C[C@H](C(=O)NCCF)OC3=O)ccc21 [Example 61, (5R)-N-(2-Fluoroethyl)-3-(3,4-dihydro-4-methyl-3-oxo-2H -1,4-benzoxazin-7-yl)-2-oxo-5-oxazolidinecarboxamide]
4 (≈ 13 µM) | CN1C(=O)CSc2cc(N3C[C@H](C(N)=O)OC3=O)ccc21 [Example 62, (5R)-3-(3,4-Dihydro-4-methyl-3-oxo-2H-1,4-benzothiazin-7-yl)-2-oxo-5-oxazolidinecarboxamide]
4 (≈ 12.4 µM) | CNC(=O)[C@H]1CN(c2ccc3c(c2)SCC(=O)N3C)C(=O)O1 [Example 63, (5R)-N-Methyl-3-(3,4-dihydro-4-methyl-3-oxo-2H-1,4-benzothiazin-7-yl)-2-oxo-5-oxazolidinecarboxamide]
2 to 4 (≈ 5.36 to 10.7 µM) | NC(=O)[C@H]1CN(c2cc(F)c(N3C=CS(=O)(=O)CC3)c(F)c2)C(=O)O1 [Example 65, (5R)-3-[4-(1,1-dioxido-2,3-dihydro-4H-1,4-thiazin-4-yl)-3,5-difluorophenyl]-2-oxo-5-oxazolidinecarboxamide]
4 (≈ 12.9 µM) | NC(=O)[C@H]1CN(c2cc(F)c(N3CC=CC3)c(F)c2)C(=O)O1 [Example 66, (5R)-3-[4-(2,5-Dihydro-1H-pyrrol-1-yl)-3,5-difluorophenyl]-2-oxo-5-oxazolidinecarboxamide]
2 (≈ 6.91 µM) | CN1C(=O)CCc2cc(N3C[C@H](C(N)=O)OC3=O)ccc21 [Example 67, (5R)-3-(1-Methyl-2-oxo-1,2,3,4-tetrahydroquinolin-6-yl)-2-oxo-5-oxazolidinecarboxamide]
4 (≈ 13.2 µM) | CNC(=O)[C@H]1CN(c2ccc3c(c2)CCC(=O)N3C)C(=O)O1 [Example 68, (5R)-N-Methyl-3-(1-methyl-2-oxo-1,2,3,4-tetrahydroquinolin-6-yl)-2-oxo-5-oxazolidinecarboxamide]
2 (≈ 6.26 µM) | NC(=O)[C@H]1CN(c2ccc(N3C=CC(=O)CC3)c(F)c2)C(=O)O1 [Example 69, (5R)-3-[4-(4-Oxo-3,4-dihydro-1(2H)-pyridinyl)-3-fluorophenyl]-2-oxo-5-oxazolidinecarboxamide]
2 (≈ 6 µM) | CNC(=O)[C@H]1CN(c2ccc(N3C=CC(=O)CC3)c(F)c2)C(=O)O1 [Example 70, (5R)-N-Methyl-3-[4-(4-oxo-3,4-dihydro-1(2H)-pyridinyl)-3-fluorophenyl]-2-oxo-5-oxazolidinecarboxamide]

MIC [µg/mL] | Structure (SMILES)
4 (≈ 11.5 µM) | CCNC(=O)[C@H]1CN(c2ccc(N3C=CC(=O)CC3)c(F)c2)C(=O)O1 [Example 71, (5R)-N-Ethyl-3-[4-(4-oxo-3,4-dihydro-1(2H)-pyridinyl)-3-fluorophenyl]-2-oxo-5-oxazolidinecarboxamide]
2 (≈ 6.64 µM) | NC(=O)[C@H]1CN(c2ccc(N3C=CC(=O)CC3)cc2)C(=O)O1 [Example 72, (5R)-3-[4-(4-Oxo-3,4-dihydro-1(2H)-pyridinyl)phenyl]-2-oxo-5-oxazolidinecarboxamide]
2 (≈ 6.34 µM) | CNC(=O)[C@H]1CN(c2ccc(N3C=CC(=O)CC3)cc2)C(=O)O1 [Example 73, (5R)-N-Methyl-3-[4-(4-oxo-3,4-dihydro-1(2H)-pyridinyl)phenyl]-2-oxo-5-oxazolidinecarboxamide]
8 (≈ 24.3 µM) | CCNC(=O)[C@H]1CN(c2ccc(N3C=CC(=O)CC3)cc2)C(=O)O1 [Example 74, (5R)-N-Ethyl-3-[4-(4-oxo-3,4-dihydro-1(2H)-pyridinyl)phenyl]-2-oxo-5-oxazolidinecarboxamide]
8 (≈ 23 µM) | O=C1C=CN(c2ccc(N3C[C@H](C(=O)NCCF)OC3=O)cc2)CC1 [Example 75, (5R)-N-(2-Fluoroethyl)-3-[4-(4-oxo-3,4-dihydro-1(2H)-pyridinyl)phenyl]-2-oxo-5-oxazolidinecarboxamide]
4 (≈ 11.9 µM) | NC(=O)[C@H]1CN(c2cc(F)c(N3C=CC(=O)CC3)c(F)c2)C(=O)O1 [Example 76, (5R)-3-[4-(4-Oxo-3,4-dihydro-1(2H)-pyridinyl)-3,5-difluorophenyl]-2-oxo-5-oxazolidinecarboxamide]
2 (≈ 5.69 µM) | CNC(=O)[C@H]1CN(c2cc(F)c(N3C=CC(=O)CC3)c(F)c2)C(=O)O1 [Example 77, (5R)-N-Methyl-3-[4-(4-oxo-3,4-dihydro-1(2H)-pyridinyl)-3,5-difluorophenyl]-2-oxo-5-oxazolidinecarboxamide]
8 (≈ 21.9 µM) | CCNC(=O)[C@H]1CN(c2cc(F)c(N3C=CC(=O)CC3)c(F)c2)C(=O)O1 [Example 78, (5R)-N-Ethyl-3-[4-(4-oxo-3,4-dihydro-1(2H)-pyridinyl)-3,5-difluorophenyl]-2-oxo-5-oxazolidinecarboxamide]
2 (≈ 6.11 µM) | CN1C(=O)C(F)(F)Oc2cc(N3C[C@H](C(N)=O)OC3=O)ccc21 [Example 80, (5R)-3-(2,2-Difluoro-4-methyl-3,4-dihydro-3-oxo-2H-1,4-benzoxazin-7-yl)-2-oxo-5-oxazolidinecarboxamide]
4 (≈ 11.7 µM) | CNC(=O)[C@H]1CN(c2ccc3c(c2)OC(F)(F)C(=O)N3C)C(=O)O1 [Example 81, (5R)-N-Methyl-3-(2,2-difluoro-4-methyl-3,4-dihydro-3-oxo-2H-1,4-benzoxazin-7-yl)-2-oxo-5-oxazolidinecarboxamide]
2 (≈ 6.18 µM) | CN1C(=S)CSc2cc(N3C[C@H](C(N)=O)OC3=O)ccc21 [Example 84, 3-(4-Methyl-3-thioxo-3,4-dihydro-2H-1,4-benzothiazin-7-yl)-2-oxo-5-oxazolidinecarboxamide]
2 (≈ 5.64 µM) | CNC(=O)[C@H]1CN(c2ccc([C@H]3CC[S@+]([O-])CC3)c(F)c2)C(=O)O1 [Example 85, (5R)-N-Methyl-3-[3-fluoro-4-(trans-tetrahydro-1-oxido-2H-thiopyran-4-yl)phenyl]-2-oxo-5-oxazolidinecarboxamide]
4 (≈ 13.5 µM) | Cn1c(=O)oc2cc(N3C[C@H](C(N)=O)OC3=O)cc(F)c21 [Example 86, (5R)-3-(4-Fluoro-3-methyl-2-oxo-2,3-dihydro-6-benzoxazolyl)-2-oxo-5-oxazolidinecarboxamide]
2 (≈ 6.47 µM) | CCn1c(=O)oc2cc(N3C[C@H](C(N)=O)OC3=O)cc(F)c21 [Example 87, (5R)-3-(3-Ethyl-4-fluoro-2-oxo-2,3-dihydro-6-benzoxazolyl) -2-oxo-5-oxazolidinecarboxamide]
4 (≈ 12.4 µM) | CC(C)n1c(=O)oc2cc(N3C[C@H](C(N)=O)OC3=O)cc(F)c21 [Example 88, (5R)-3-(4-Fluoro-3-isopropyl-2-oxo-2,3-dihydro-6-benzoxazolyl)-2-oxo-5-oxazolidinecarboxamide]
16 (≈ 51.7 µM) | CNC(=O)[C@H]1CN(c2cc(F)c3c(c2)oc(=O)n3C)C(=O)O1 [Example 89, (5R)-3-(4-Fluoro-3-methyl-2-oxo-2,3-dihydro-6-benzoxazolyl)-N-methyl-2-oxo-5-oxazolidinecarboxamide]
